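Protocol summary: plate cells (96-well), add compound at 5 concentrations, incubate 48 h, interpolate endpoints linearly. At the TGI there is no net growth.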
What was measured:
Experiment in all cases: inhibition of tumour cell growth, NCI panel, 48 h
[1] = tested on: 786-0 renal
[2] = tested on: COLO 205 colon
[3] = tested on: HOP-62 NSCLC
[4] = tested on: HT29 colon
[5] = tested on: KM12 colon
[6] = tested on: MDA-MB-231 breast
[7] = tested on: MDA-MB-435
[8] = tested on: MOLT-4 leukemia
[9] = tested on: RXF 393 renal
[10] = tested on: SF-295 CNS
[11] = tested on: SF-539 CNS
[12] = tested on: SK-MEL-2 melanoma
[13] = tested on: SN12C renal
[14] = tested on: UACC-257 melanoma

Structure (SMILES) | TGI [1] | TGI [2] | TGI [3] | TGI [4] | TGI [5] | TGI [6] | TGI [7] | TGI [8] | TGI [9] | TGI [10] | TGI [11] | TGI [12] | TGI [13] | TGI [14]
CCCSc1cc(Cl)c(C)cc1S(=O)(=O)n1cc[nH]c1=O | > 100 µM | > 100 µM | > 100 µM | > 100 µM | > 100 µM | > 100 µM | > 100 µM | > 100 µM | > 100 µM | > 100 µM | > 100 µM | > 100 µM | > 100 µM | > 100 µM
O=S(=O)(O)c1cc(S(=O)(=O)O)c2c(N=Nc3cccc4ccccc34)c(O)ccc2c1 | > 100 µM | > 100 µM | > 100 µM | > 100 µM | > 100 µM | > 100 µM | > 100 µM | > 100 µM | > 100 µM | > 100 µM | > 100 µM | > 100 µM | > 100 µM | > 100 µM
CN(CCc1ccc(Br)cc1)CCN1CCCCC1 | > 100 µM | 32.4 µM | > 100 µM | 38.8 µM | 41.9 µM | > 100 µM | 95.3 µM | > 100 µM | > 100 µM | 61.4 µM | 64.8 µM | 64.3 µM | > 100 µM | > 100 µM
C[C@]12CC[C@@H]3c4ccc(OC(=O)c5ccccc5)cc4CC[C@H]3[C@@H]1CCC2OC(=O)c1cccc2c(=O)c3ccccc3[nH]c12 (some centres undefined) | 31.7 µM | 33.1 µM | 50.2 µM | 20.7 µM | 29.6 µM | 40.8 µM | 15.4 µM | > 100 µM | 44.6 µM | 37.5 µM | 35.6 µM | 54.3 µM | 30.1 µM | 36.3 µM
CCOC(=O)c1ccc2c(c1)nc1n2C(c2c(F)cccc2F)SC1 (centres undefined) | 67.8 µM | 28.5 µM | > 100 µM | 56.4 µM | 37.7 µM | > 100 µM | > 100 µM | > 100 µM | > 100 µM | 73.7 µM | 53.1 µM | 38.4 µM | > 100 µM | > 100 µM
Cc1c(O)c(OC2OC(CO)C(O)C(O)C2O)cc2c1CC[C@@H]1C2(C)C(=O)C[C@]2(C)[C@@H]([C@@](C)(O)C(O)/C=C/C(C)(C)O)[C@H](O)C[C@@]12C (some centres undefined) | > 100 µM | > 100 µM | > 100 µM | > 100 µM | > 100 µM | > 100 µM | > 100 µM | > 100 µM | > 100 µM | > 100 µM | > 100 µM | > 100 µM | > 100 µM | > 100 µM
CCCCCCCCCCCCCCCCOP(=O)(O)OP(=O)(O)OCC1OC(n2ccc(N)nc2=O)CC1O (centres undefined) | > 100 µM | > 100 µM | > 100 µM | > 100 µM | > 100 µM | > 100 µM | > 100 µM | > 100 µM | > 100 µM | > 100 µM | > 100 µM | > 100 µM | > 100 µM | > 100 µM
COC(=O)c1cc(Br)c(C(=O)C(Cl)(Cl)Cl)[nH]1 | > 100 µM | > 100 µM | > 100 µM | > 100 µM | > 100 µM | > 100 µM | > 100 µM | > 100 µM | > 100 µM | > 100 µM | > 100 µM | > 100 µM | > 100 µM | > 100 µM
O=c1c2cccnc2[nH]c2ccc3scnc3c12 | > 10 µM | > 10 µM | > 10 µM | > 10 µM | > 10 µM | > 10 µM | > 10 µM | > 10 µM | 8.71 µM | > 10 µM | > 10 µM | > 10 µM | > 10 µM | > 10 µM
COC(=O)C1([C@@H]2C[C@@H](O)[C@]3(C)CC/C=C(\C)CCC[C@H](C)[C@H](O)[C@@H]2O3)CC1 | > 100 µM | > 100 µM | > 100 µM | > 100 µM | > 100 µM | > 100 µM | > 100 µM | 88.8 µM | > 100 µM | > 100 µM | > 100 µM | > 100 µM | > 100 µM | > 100 µM
COC1Cc2c(C)c(OC(C)=O)c3cccnc3c2O1 (centres undefined) | 34.3 µM | > 100 µM | 90.9 µM | > 100 µM | > 100 µM | > 100 µM | 32.6 µM | 43.1 µM | 31.7 µM | 93.3 µM | > 100 µM | 31.2 µM | 37.8 µM | 29.8 µM
O=C(O)CN1CCNCCN(CC(=O)O)CC1 | > 100 µM | 6.12 µM | > 100 µM | > 21.4 µM | > 100 µM | > 100 µM | > 100 µM | > 100 µM | > 100 µM | > 100 µM | > 100 µM | > 100 µM | > 100 µM | > 100 µM
COC(=O)[C@H](CCSC)NC(=O)c1ccc(CNC(=O)/C=C/c2cccc(Oc3ccccc3)c2)cc1 | > 100 µM | 50.5 µM | > 100 µM | > 100 µM | > 100 µM | > 83.5 µM | 32.9 µM | 33.4 µM | 55.4 µM | > 100 µM | > 100 µM | 32.8 µM | > 100 µM | 26.9 µM
Cc1cc(C)c2c(=O)cc(-c3ccc(Cl)cc3)[nH]c2n1 | > 100 µM | > 55.6 µM | > 100 µM | > 48.5 µM | > 100 µM | > 51.8 µM | 27.6 µM | > 100 µM | > 100 µM | > 73.3 µM | > 100 µM | > 100 µM | > 100 µM | 83.1 µM
CC1=CC(C)C(C)N(CCNC(=O)Nc2ccccc2)c2ccccc21 (centres undefined) | > 100 µM | 32.6 µM | 63.4 µM | 32.1 µM | 57.9 µM | 31.1 µM | 75.1 µM | 64.4 µM | 40.3 µM | 40.6 µM | 68.3 µM | 56.2 µM | > 100 µM | 42.7 µM
O=C(OCc1ccccc1)N1CCNCCNCC1 | > 100 µM | > 100 µM | > 100 µM | > 100 µM | > 100 µM | > 100 µM | > 100 µM | > 100 µM | > 100 µM | > 100 µM | > 100 µM | > 100 µM | > 100 µM | > 100 µM
COc1cccc2c1C(=O)C(=O)c1c-2oc(=O)c2cc(C)cc(OC)c12 | > 75 µM | > 75 µM | 32.4 µM | > 75 µM | 53.9 µM | 70.6 µM | 26.1 µM | 74.3 µM | 42.8 µM | > 75 µM | > 75 µM | 35.1 µM | > 75 µM | 32.4 µM
Cc1[nH]c2c(C)ccc(C)c2c1CC(=O)O | > 100 µM | > 100 µM | > 100 µM | > 100 µM | > 100 µM | 76.3 µM | > 100 µM | 54.1 µM | > 100 µM | > 100 µM | > 100 µM | 81.9 µM | > 100 µM | > 100 µM
c1ccc(COCC23CCN(Cc4ccccc4)C(CC(OCc4ccccc4)C2)S3)cc1 (centres undefined) | > 100 µM | > 100 µM | > 100 µM | > 100 µM | > 100 µM | > 100 µM | > 100 µM | 69.9 µM | > 100 µM | > 100 µM | > 100 µM | > 100 µM | > 100 µM | > 100 µM
O=C1c2ccccc2C(=O)c2c(OCC3CO3)ccc(OCC3CO3)c21 (centres undefined) | 6.48 µM | 9.34 µM | 7.09 µM | 15.1 µM | 11.4 µM | > 34 µM | 7.61 µM | 0.95 µM | 8.31 µM | 11.8 µM | 9.02 µM | 27.8 µM | 4.74 µM | 19.4 µM
NCC(=O)C(O)C(O)C(O)CO (centres undefined) | > 100 µM | > 100 µM | > 100 µM | > 100 µM | > 100 µM | > 100 µM | > 100 µM | > 100 µM | > 100 µM | > 100 µM | > 100 µM | > 100 µM | > 100 µM | > 100 µM
